Test results as given in ChEMBL document CHEMBL4477206, “Benzylpiperidine-Linked Diarylthiazoles as Potential Anti-Alzheimer's Agents: Synthesis and Biological Evaluation” (J Med Chem, 2016).
Active and inactive are the calls of the source. The rule behind the calls is not given here.

Key:
Cholinesterase = Cholinesterase (Equus caballus, UniProt P81908); assay: Inhibition of equine serum BuChE using BTCI as substrate preincubated for 30 mins followed by substrate addition measured after 30 mins by Ellman assay
Acetylcholinesterase [1] = target: T1, Acetylcholinesterase (Homo sapiens, UniProt P22303); assay: Mixed inhibition of human erythrocyte AChE at 0.05 to 0.4 uM using ATCI as substrate preincubated for 30 mins followed by substrate addition measured after 30 mins by Lineweaver-Burk plot analysis
[2] = Toxicity in Swiss albino mouse assessed as mortality at 677 to 2000 mg/kg, po for 14 days; format: organism-based; details: in vivo, 336 h
[3] = Toxicity in Swiss albino mouse assessed as changes in fur sleekness at 677 to 2000 mg/kg, po for 14 days; format: organism-based; details: in vivo, 336 h
[4] = Toxicity in Swiss albino mouse assessed as change in water and food consumption at 677 to 2000 mg/kg, po for 14 days; format: organism-based; details: in vivo, 336 h
[5] = Toxicity in Swiss albino mouse assessed as change in body weight at 677 to 2000 mg/kg, po for 14 days; format: organism-based; details: in vivo, 336 h
[6] = Toxicity in Swiss albino mouse assessed as heart damage at 677 to 2000 mg/kg, po treated for 14 days measured on 15th day post treatment; format: organism-based; details: in vivo, 336 h
[7] = Toxicity in Swiss albino mouse assessed as kidney damage at 677 to 2000 mg/kg, po treated for 14 days measured on 15th day post treatment; format: organism-based; details: in vivo, 336 h
[8] = Toxicity in Swiss albino mouse assessed as liver damage at 677 to 2000 mg/kg, po treated for 14 days measured on 15th day post treatment; format: organism-based; details: in vivo, 336 h
[9] = Cmax in Wistar rat at 5 mg/kg, po administered as a single dose by HPLC analysis; format: ADME, organism-based; design: dose 5 mg/kg, route oral; details: in vivo
[10] = Tmax in Wistar rat at 5 mg/kg, po administered as a single dose by HPLC analysis; format: ADME, organism-based; details: in vivo
[11] = AUC(0 to 8 hrs) in Wistar rat at 5 mg/kg, po administered as a single dose by HPLC analysis; format: ADME, organism-based; design: time < 6 hr, dose 5 mg/kg, route oral; details: in vivo
[12] = Terminal half life in Wistar rat at 5 mg/kg, po administered as a single dose by HPLC analysis; format: ADME, organism-based; details: in vivo, read-out: beta t1/2 (converted)
Mus musculus [13] = assay: (§1) Neuroprotective activity in Swiss albino mouse assessed as inhibition of scopolamine-induced elevation in MDA level in brain at 5 mg/kg, po administered 30 mins prior to scopolamine challenge administered for 9 days measured after 20 mins of compound incubation by TBARS assay relative to vehicle-treated control; format: functional, organism-based
Mus musculus [14] = assay: as §1, with “elevation” for “inhibition”, “decrease” for “elevation”, “catalase” for “MDA”, “1 min” for “20 mins”, “spectrophotometrical analysis” for “TBARS assay”; format: functional, organism-based
Rattus norvegicus = assay: Neuroprotective activity in Wistar rat brain hippocampus assessed as increase in Abeta (1 to 42) insult-induced decrease in spontaneous alterations at 5 mg/kg, po administered for 15 days measured for last 5 days of treatment by Y Maze assay; format: functional, organism-based
[15] = Permeability of the compound at 100 ug/ml incubated for 120 mins by PAMPA; format: ADME; details: read-out: Peff
Acetylcholinesterase [16] = target: T1, Acetylcholinesterase; details: at 10 µM
Description: Inhibition of human erythrocyte AChE-induced Abeta (1 to 42) aggregation at 10 uM incubated for 24 hrs by thioflavin-T fluorescence assay

in vitro [17] = details: human, SH-SY5Y cells
Description: Cytotoxicity against human SH-SY5Y cells assessed as cell viability at 40 uM after 24 hrs by MTT assay

in vitro [18] = details: human, SH-SY5Y cells; remark: listed apart in the source
Description: Cytotoxicity against human SH-SY5Y cells assessed as cell viability at 80 uM after 24 hrs by MTT assay

T1 sequence (P22303 whole entry): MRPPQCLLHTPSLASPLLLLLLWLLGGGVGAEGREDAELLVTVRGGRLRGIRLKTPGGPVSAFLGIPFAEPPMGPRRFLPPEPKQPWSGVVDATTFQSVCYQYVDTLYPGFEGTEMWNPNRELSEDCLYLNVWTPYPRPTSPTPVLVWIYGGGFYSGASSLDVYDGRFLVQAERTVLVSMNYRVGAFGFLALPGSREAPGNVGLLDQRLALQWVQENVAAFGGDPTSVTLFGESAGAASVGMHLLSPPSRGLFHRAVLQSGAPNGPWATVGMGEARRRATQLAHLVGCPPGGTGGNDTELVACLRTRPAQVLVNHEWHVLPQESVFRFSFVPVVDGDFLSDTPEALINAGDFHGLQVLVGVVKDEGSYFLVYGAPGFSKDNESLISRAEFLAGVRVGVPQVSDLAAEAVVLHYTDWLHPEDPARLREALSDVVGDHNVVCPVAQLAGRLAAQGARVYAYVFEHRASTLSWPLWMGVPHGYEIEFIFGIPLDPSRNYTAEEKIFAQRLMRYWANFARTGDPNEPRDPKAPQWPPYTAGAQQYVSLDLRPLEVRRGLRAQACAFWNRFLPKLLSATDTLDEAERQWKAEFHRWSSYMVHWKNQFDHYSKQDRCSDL
Chain of Cholinesterase (P81908 whole entry): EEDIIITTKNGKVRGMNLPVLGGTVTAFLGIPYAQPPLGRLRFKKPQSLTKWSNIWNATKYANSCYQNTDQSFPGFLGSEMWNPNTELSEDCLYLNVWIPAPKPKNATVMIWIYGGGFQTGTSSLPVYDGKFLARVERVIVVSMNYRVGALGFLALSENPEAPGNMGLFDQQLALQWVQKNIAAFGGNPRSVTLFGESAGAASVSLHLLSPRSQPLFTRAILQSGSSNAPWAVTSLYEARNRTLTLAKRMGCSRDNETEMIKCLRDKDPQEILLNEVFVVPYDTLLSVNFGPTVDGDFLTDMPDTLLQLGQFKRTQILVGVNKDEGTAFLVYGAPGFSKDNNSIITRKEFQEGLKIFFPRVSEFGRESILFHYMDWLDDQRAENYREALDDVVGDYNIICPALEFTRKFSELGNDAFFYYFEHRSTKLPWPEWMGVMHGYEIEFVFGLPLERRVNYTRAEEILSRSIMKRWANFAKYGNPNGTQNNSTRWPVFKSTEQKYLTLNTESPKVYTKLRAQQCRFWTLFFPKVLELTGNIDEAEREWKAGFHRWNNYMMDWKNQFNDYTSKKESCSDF

With `Cc1ccc(-c2nc(NCC3CCN(Cc4cc(F)cc(F)c4)CC3)sc2-c2ccc(C)cc2)cc1` the IC50 (Cholinesterase) was 1.84 µM, the inhibition (Acetylcholinesterase [1]) was “Active” and the Activity [2] was “Non-Toxic”. For the same compound, the Activity [3] was “Non-Toxic”, the Activity [4] was “Non-Toxic” and the Activity [5] was “Non-Toxic”. For the same compound, the Activity [6] was “Non-Toxic”, the Activity [7] was “Non-Toxic” and the Activity [8] was “Non-Toxic”. The Cmax [9] was 21.2 ng/mL, the Tmax [10] was 3.66 h and the AUC(0-t) at 6 h [11] was 587 ng·h/mL. The half-life [12] was 19.4 h, the Activity (Mus musculus [13]) was “Active” and the Activity (Mus musculus [14]) was “Active”. For the same compound, the Activity (Rattus norvegicus) was “Active”, the Papp at 2 h, 100 ug/ml [15] was 14.5 ×10⁻⁶ cm/s and the inhibition (Acetylcholinesterase [16]) was 27.6%. The viability at 24 h, 40 µM (in vitro [17]) was 95.2% and the viability at 24 h, 80 µM (in vitro [18]) was 91.3%.
